Experimental findings from US20070259327A1, “Cryopreservation medium and cryopreservation method for tissues and cells” (BioVerde. Inc., priority 2006, published 2007) are described below.

Common to all, as to type: cell-based, pigs
The subject of test [1] is Islets. The experiment in a line: Viability of post-cryopreservation islets assessed using AO/PI. The conditions noted are these: for viability assessed using AO/PI: post-cryopreservation. On the procedure:
(§1) Islets were isolated from over two years old pigs (n=3). After overnight culture, a known number of islets were incubated for 2 hours in culture medium supplemented with polyphenol (epigallocatechin-gallate (EGCg) with more than 98% purity) at concentrations of 0 (control), 30, 60, 120 ug/ml. Islets were suspended in the same volume of cryopreservation solution containing 12% hydroxyethyl starch (HES) and 10% dimethyl sulfoxide (DMSO) with 8% […] (FBS), and then cryopreserved using a program freezing system^3. After 4 weeks storage in liquid nitrogen, islets were rapidly thawed in a hot water bath. We assessed the results on recovery rate (islet yield after thawing/islet yield before freezing) following cryopreservation and after 48 hours of postcryopreservation tissue culture, viability and functionality.

Test [2] concerns Islets. The test is described as follows: Functionality of post-cryopreservation islets (stimulation index, insulin secretion high/low glucose). The conditions noted are these: ratio of insulin secretion high vs low glucose medium. As to the method:
as §1, with “functionality. […] The stimulation index represents a ratio of insulin secretion between high-concentration glucose culture medium and low-concentration glucose culture medium.” for “functionality.”

Test [3] relates to Islets. The experiment in a line: Islet recovery rate after cryopreservation with polyphenol pre-incubation. The conditions noted are these: for islet recovery rate following cryopreservation: 2 hours incubation before freezing, 4 weeks in liquid nitrogen; for islet recovery rate after 48 hours of postcryopreservation tissue culture: 48 hours culture after thawing. On the procedure:
as §1

Turning to `O=C(O[C@@H]1Cc2c(O)cc(O)cc2O[C@@H]1c1cc(O)c(O)c(O)c1)c1cc(O)c(O)c(O)c1` [polyphenol, epigallocatechin-gallate], the entries for the “viability assessed using AO/PI” value in the test on Islets [1] (30 ug/ml polyphenol), in the test with Islets [1] (60 ug/ml polyphenol) and with Islets [1] (120 ug/ml polyphenol) were 83.1±1.2, 85.9±2.5 and 84.4±1.0, respectively. The “viability following cryopreservation, compared with control” value with Islets [1] (polyphenol group vs control group, p<0.01) is “significantly higher than the control group”. The “functionality indicated by stimulation index” value in the test with Islets [2] (30 ug/ml polyphenol) was 1.4±0.2; in the test on Islets [2] (60 ug/ml polyphenol), 1.4±0.3; in the test with Islets [2] (120 ug/ml polyphenol), 0.9±0.3. The “islet recovery rate following cryopreservation” value in the test on Islets [3] (30 ug/ml polyphenol) amounted to 66.5±3.3%; in the test on Islets [3] (60 ug/ml polyphenol) it was 76.9±5.2%; with Islets [3] (120 ug/ml polyphenol), 74.5±2.9%. The “islet recovery rate after 48 hours of postcryopreservation tissue culture” value in the test on Islets [3] (30 ug/ml polyphenol) is reported as 45.3±0.3%; in the test with Islets [3] (60 ug/ml polyphenol) it was 68.0±3.0%; with Islets [3] (120 ug/ml polyphenol), 54.6±3.3%.
